Results published in patent US11155580B2, “Modified proteins and methods of use thereof” (YALE UNIVERSITY, priority 2013, dated 2021).

Columns and labels:
[1] = system: HeLa cervical cancer cells; assay: Internal peptide concentration after co-administration with ZF 5.3; type: cell-based
Description: HeLa cervical cancer cells were incubated in the presence of either 500 nM ZF 4.3-Rhodamine or 500 nM ZF 4.3-Rhodamine with 1 μM ZF 5.3 for 30 minutes. After incubation, external peptide was removed and internal peptide concentration was measured using a microscope with advanced correlation and detection hardware. In the absence of ZF 5.3, only a small amount of ZF 4.3 enters the cell interior, corresponding to ˜8% of the ZF 4.3 concentration added (FIG. 19). In the presence of ZF 5.3, the amount of ZF 4.3 that enters the cell interior quadrupled, raising to ˜35% of the concentration added (FIG. 19).

[2] = Trafficking of a biologically active peptide (NBD) into the cytosol; type: cell-based; conditions: 500 nM NBD fusions
Description: Cells were incubated in the presence of either 500 nM ZF 5.3-NBD or Antp-NBD or Arg8-NBD (FIG. 20). After incubation, internal peptide concentration was measured.

| Sequence | intracellular concentration on co-incubation with ZF 5.3 [1] | trafficking a biologically active peptide into the cytosol [2] |
| --- | --- | --- |
| RRRRRRRR [Arg8] | did not significantly increase | – |
| WYSCNVCGKAFVLSRHLNRHLRVHRRAT [ZF5.3] | – | superior to both Antp and Arg8 |
